Reference: PMC12200682 (PLOS One, 2025)

Key:
NCI-N87 = assay: Cell viability assay, NCI-N87; assay type: cell-based; settings: Homo sapiens, NCI-N87, 144 h, read-out: IC50 cytotoxicity
Protocol: (§1) Cells were seeded into 96-well plates at 1500 cells/well for SK-BR-3, JIMT-1, and NCI-N87, 800 cells/well for HCC1954, 600 cells/well for AGS and MKN-45, 2500 cells/well for MDA-MB-468 and Capan-1, and 1000 cells/well for SNU-16. After overnight incubation, a serially diluted solution of compounds or ADCs was added. Cell viability was evaluated after 6 days using CellTiter-Glo reagent (Promega) according to the manufacturer’s instructions. Luminescence was measured by PHERAstar (BMG LABTECH).

JIMT-1 = assay: Cell viability assay, JIMT-1; assay type: cell-based; settings: Homo sapiens, JIMT-1, 144 h, read-out: IC50 cytotoxicity
Protocol: as §1

nine cancer cell lines = assay: Cell viability assay, panel of nine cancer cell lines; assay type: cell-based; settings: Homo sapiens; independent of HER2 expression levels; read-out: IC50 values across nine cancer cell lines
Protocol: as §1

[1] = Toxicokinetics in cynomolgus monkeys; assay type: in vivo; settings: for half-life: both sexes, cynomolgus monkey, in vivo, iv, 40 mg/kg
Protocol: GLP toxicology and toxicokinetics studies were outsourced to Shanghai InnoStar Bio-tech Co., Ltd. Studies were approved by InnoStar’s Institutional Animal Care and Use Committee and carried out in compliance with ARRIVE guidelines. Cynomolgus monkeys were housed in stainless steel cages at the study institution. The temperature and relative humidity of the room were recorded twice a day with ranged from 18 to 26°C and 40–70%, respectively. Ventilation was constantly operated with ≥ 8 times of air changes per hour. […] Monkey maintenance feed was purchased from qualified supplier with microorganisms, heavy metals and pesticide residues tested. During the study, all animals had ad libitum access to feed and clean deionized water except during specific fasting. […] All animals were acclimated to temperature and relative humidity-controlled environment for few days before randomization. Detailed clinical observation was performed on all cynomolgus monkeys once a day during the acclimation period. All of the animal care staff were trained to maximal reduce the pain of animals. Special training such as animal handling, proper injection for treatment/anesthesia, and painless death were taught to the staff.
Clinical signs, body weight, food consumption, and clinical pathology were monitored twice a day. […] Humane endpoint criteria were observed twice a day during study to examine health and behavior. Animals were sacrificed in less than a day once reached endpoint criteria. There were no unexpected animal deaths during the studies with 16-weeks duration. All of the animals were euthanized by intravenous injection of combination of zoletil and xylazine at the end of study for targeted organ and tissue examinations to evaluate toxicity or when the following humane endpoints were reached: severe injury, severe respiratory depression, severe weight loss, persistent anorexia, significant pain or stress, progressive pain leading to weakness, and persistent or continuous twitching. Final disposal of each animal was recorded on the study records.

Capan-1 = assay: Cell viability assay, Capan-1; assay type: cell-based; settings: Homo sapiens, CAPAN-1, 144 h, read-out: IC50 cytotoxicity
Protocol: as §1

MKN45 = assay: Cell viability assay, MKN45; assay type: cell-based; settings: Homo sapiens, MKN-45, 144 h, read-out: IC50 cytotoxicity
Protocol: as §1

[2] = Parallel artificial membrane permeability (PAMPA) assay; assay type: in vitro ADME
Protocol: PAMPA assay was outsourced to Wuxi Apptech Co. Ltd. Briefly, donor plate, acceptor plate and receiver plate formed a sandwich and 200 µL of 5.0 µM donor solutions were added. The concentrations of compounds in both plates were measured by a LC-MS/MS system after 30 minutes. The permeability coefficient (Peff, nm/s) values at pH 5 and 7.4 were calculated.

MDA-MB-468 = assay: Cell viability assay, MDA-MB-468; assay type: cell-based; settings: Homo sapiens, MDA-MB-468, 144 h, read-out: IC50 cytotoxicity
Protocol: as §1

human topoisomerase I = target: T1, human topoisomerase I (Homo sapiens, UniProt P11387); assay: Topoisomerase I inhibition assay; assay type: biochemical; settings: read-out: Top I inhibition (IC50)
T1 construct: purchased Inspiralis
T1 sequence (P11387 1-765): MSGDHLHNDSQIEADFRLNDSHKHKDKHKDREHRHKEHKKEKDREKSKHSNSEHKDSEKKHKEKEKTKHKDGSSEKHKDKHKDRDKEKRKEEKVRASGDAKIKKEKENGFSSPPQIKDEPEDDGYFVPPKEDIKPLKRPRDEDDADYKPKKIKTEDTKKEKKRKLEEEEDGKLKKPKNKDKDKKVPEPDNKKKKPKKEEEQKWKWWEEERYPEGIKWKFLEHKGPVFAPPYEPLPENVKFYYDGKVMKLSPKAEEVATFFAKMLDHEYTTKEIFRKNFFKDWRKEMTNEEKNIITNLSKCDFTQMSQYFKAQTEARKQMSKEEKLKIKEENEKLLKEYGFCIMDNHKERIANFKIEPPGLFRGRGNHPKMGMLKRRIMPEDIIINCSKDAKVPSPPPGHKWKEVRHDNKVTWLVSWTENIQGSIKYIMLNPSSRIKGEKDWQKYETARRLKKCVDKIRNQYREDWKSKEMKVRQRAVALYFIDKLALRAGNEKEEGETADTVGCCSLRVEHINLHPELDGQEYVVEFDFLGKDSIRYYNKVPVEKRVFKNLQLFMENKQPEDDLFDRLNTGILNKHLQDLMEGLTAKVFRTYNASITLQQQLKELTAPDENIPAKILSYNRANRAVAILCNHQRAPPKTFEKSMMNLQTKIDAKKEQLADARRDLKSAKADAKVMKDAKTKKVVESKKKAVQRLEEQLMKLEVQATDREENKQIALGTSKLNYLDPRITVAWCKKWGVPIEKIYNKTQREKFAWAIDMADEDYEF
Protocol: Topoisomerase I inhibition assay was outsourced to Wuxi Apptech Co. Ltd. Topoisomerase I activity was measured using human topoisomerase I microplate assay kit (Inspiralis), according to the manufacturer’s instructions.

SK-BR-3 = assay: Cell viability assay, SK-BR-3; assay type: cell-based; settings: Homo sapiens, SK-BR-3, 144 h, read-out: IC50 cytotoxicity
Protocol: as §1

HCC1954 = assay: Cell viability assay, HCC1954; assay type: cell-based; settings: Homo sapiens, HCC1954, 144 h, read-out: IC50 cytotoxicity
Protocol: as §1

AGS = assay: Cell viability assay, AGS; assay type: cell-based; settings: Homo sapiens, 144 h, read-out: IC50 cytotoxicity
Protocol: as §1

[3] = Pharmacokinetics of payload in mice; set-up: species or system C57BL/6 mice; settings: C57BL/6, mouse, in vivo, iv, 0.5 mg/kg
Protocol: All animal experiments at Shanghai Hengrui were approved by Shanghai Hengrui’s Institutional Animal Care and Use Committee. Studies were performed in accordance with ARRIVE guidelines. C57BL/6 mice (15–18 g body weight, n = 18) were purchased from Beijing Vital River Laboratory Animal Technology Co., Ltd and were held as described in details of mouse xenograft section. Compounds were administered intravenously at 0.5 mg/kg. Blood samples were collected at various time points after dosing. Mice were monitored daily for health condition and humane endpoint criteria. There were no unexpected animal deaths or humane endpoint criteria reached during the study. All of the animals were euthanized by using inhaled carbon dioxide at the end of study. The compound concentrations were determined by SCIEX Triple Quad 7500 LC-MS/MS System (SCIEX).

[4] = Lipophilicity assay (chromatographic LogD); assay type: physicochemical; settings: pH 7.4
Protocol: Distribution coefficient (LogD, pH 7.4) was obtained by a high-throughput alternative method. Each compound was dissolved in DMSO at 10 mM. After centrifugation, the solution was measured by reversed-phase HPLC on a C18 column (50 × 4.6 mm, […] Gemini C18, Phenomenex) at pH 7.4, using fast gradient acetonitrile-aqueous buffer mobile phases. The lipophilicity was estimated from a calibration curve using six reference compounds by plotting their respectively measured retention time versus LogD in literature. The chromatographic LogD values were derived directly from the gradient retention time by using this calibration curve.

## CC[C@@]1(O)C(=O)OCc2c1cc1n(c2=O)Cc2c-1nc1cc(F)c(C)c3c1c2[C@@H](NC(=O)[C@H](O)C1CC1)CC3 [SHR169265]
NCI-N87
  IC50: 1 ± 0.07 nM
JIMT-1
  IC50: 2.32 ± 0.45 nM
Nine cancer cell lines
  IC50: 0.3 to 2.32 nM
[1]; analyte after SHR-A1811 40 mg/kg i.v. every 3 weeks, Multiple vs single
  RacAUCINF: 1.07
[1]; analyte after SHR-A1811 40 mg/kg i.v. every 3 weeks, Multiple
  half-life: 101 h
[1]; analyte after SHR-A1811 40 mg/kg i.v., Single
  half-life: 107 h
Capan-1
  IC50: 0.38 ± 0.07 nM
MKN45
  IC50: 0.3 ± 0.07 nM
[2]; pH 5
  Papp at 30 min, 5 µM: 13.8 ×10⁻⁶ cm/s
[2]; pH 7.4
  Papp at 30 min, 5 µM: 7.16 ×10⁻⁶ cm/s
MDA-MB-468
  IC50: 0.56 ± 0.09 nM
Human topoisomerase I
  IC50: 1340 nM
SK-BR-3
  IC50: 0.58 ± 0.1 nM
HCC1954
  IC50: 0.55 ± 0.19 nM
AGS
  IC50: 0.36 ± 0.11 nM
[3]
  AUC(0-t): 113 ng·h/mL
  Cmax: 250 ng/mL
  Vd: 1.81 L/kg
  clearance: 72.6 mL/min/kg
[3]; mice, i.v. injection
  half-life: 0.37 h
[4]
  chromatographic logD: 1.89
